# Reference: a melting point compilation (Tetko et al.; mined from patent text by program, amines drawn as free bases though some values may be those of a salt)
row,Structure (SMILES),melting point
1,CN1C(=S)N(c2ccc(C#N)c(C(F)(F)F)c2)C(=S)C1(C)C,211 to 212 °C
2,O=C(O)c1ccc(NCCC(c2ccc(Cl)cc2)c2ccc(Cl)cc2)cc1,213 to 215 °C
3,O=C(O)CCCON1CCNC1=Nc1c(Cl)cccc1Cl,115 to 116 °C
4,O=C(O)c1cc(OCc2ccccc2)cc(C(F)(F)F)c1,143 to 145 °C
5,CCOC(=O)c1cc(NCc2c(C)cccc2CC)c2nc(COC)n(C)c2c1,106 to 107 °C
6,Fc1ccc(Cn2c(NC3CCN(CCNc4nc5ccccc5n4Cc4ccc(Cl)c(Cl)c4)CC3)nc3ccccc32)cc1,113 °C
7,COC(=O)CSC(c1ccccc1Cl)c1ccccc1Cl,90 to 92 °C
8,Nc1ccc(F)c(-c2cccnc2)c1F,112 to 113 °C
9,CCCOc1ccccc1-c1cc(C)c(C(=O)OC)c(=O)[nH]1,167 to 169 °C
10,CN(C)N=Nc1ccsc1C(=O)O,108 to 110 °C
11,COc1cc(C(=O)O)ccc1Cc1cn(CCC(N)=O)c2ccc(C(=O)NCC3CCCC3)cc12,129 to 131 °C
12,CS(=O)(=O)OCCc1c2ccccc2n2c1[nH]c(=O)c1ccccc12,196 to 198 °C
13,COc1nc(=O)c(Cc2ccc(C)nc2)c[nH]1,145 to 147 °C
14,Cc1ccc2c(c1)c(N1CCN(C(=O)c3cccs3)CC1)c(C#N)c(=O)n2CCN1CCCC1,139 to 143 °C
15,c1ccc(Oc2ccc(-c3nc(-c4ccccc4)c(-c4ccccc4)o3)cc2)cc1,125 to 126 °C
16,Cc1cc(S(N)(=O)=O)ccc1N1CN(c2ccccc2)CC1=O,206 to 210 °C
17,CSc1nnc(SC)c2cc(-c3ccccc3)ncc12,155 °C
18,CCOC(=O)c1c(CN(CC)CC)nc2sc3c(c2c1-c1ccc(OC)c(OC)c1)CCN(S(=O)(=O)c1ccccc1)C3,161 to 162 °C
19,Fc1cc(Cl)c(CCl)cc1-c1ncnc(C(F)F)c1Cl,132 to 133 °C
20,COc1ccc2c(n1)c(CCNC(=O)c1ccco1)c1n2CCCO1,139 to 140 °C

row,Structure (SMILES),melting point
1,COc1cc2c3c(nc4ccc(Cl)cc4c3c1)-c1ccccc1N2,205 to 207 °C
2,CCOC(=O)CN1C(=O)c2cccc3c(Cl)ccc1c23,138 to 140 °C
3,COc1ccc(CN2C(=O)N([C@H](C)c3ccccc3)[C@H]3COC(=O)[C@H]32)cc1,146 °C
4,N=c1ncccn1CCc1ccccc1Br,97 to 98 °C
5,CC(C)S(=O)(=O)c1ccccc1Nc1nc(Nc2ccc3c(c2)C(C)(C)CCC(=O)N3C)ncc1Cl,195 to 197 °C
6,CCc1ccc2c(n1)C(C(N)=S)CCC2 (centres undefined),73 to 75 °C
7,O=C(CCl)Nc1ccc2c(c1NC(=O)c1ccccc1F)C(=O)c1ccccc1C2=O,245 to 246 °C
8,Cc1cc(-c2nn(C3CCCC3)c3c(F)cccc23)ccc1O,107 °C
9,COCc1cc2c(s1)CCc1cc(=O)n(-c3ccc(Cl)cc3)nc1-2,159 to 160 °C
10,O=c1cc(-c2ccc(OCCCCl)cc2)cn[nH]1,197 to 199 °C
11,COC(=O)c1ccc2c(c1)S(=O)(=O)c1ccccc1NC2=O,300 to 302 °C
12,Nc1nc(-c2ccccc2)c(-c2ccc(=O)n(CC3CC3)n2)s1,204 to 206 °C
13,COc1ccc2[nH]cc(CCCN(CC3CC3)C3COc4c(F)ccc(C(N)=O)c4C3)c2c1 (centres undefined),148 to 154 °C
14,CS(=O)CCCn1cnc(-c2ccc(F)cc2)c1-c1ccncc1 (racemic),122 to 123 °C
15,C=CCn1c(=Nc2ccccc2)sc2ncccc2c1=O,94 to 95 °C
16,CCCC12CCC3C4CCC(=O)C=C4CCC3C1CCC2O (centres undefined),126 to 127 °C
17,COc1ccc(C)cc1NC(=O)Nc1ccc(N2CCN(C(=O)Nc3ccc(OCCO)cc3Cl)C(C)C2)cc1 (centres undefined),129 to 131 °C
18,COC(=O)C(=CN(C)C)N(C)c1cc(-c2cccc(OC)c2)ncn1,172 to 174 °C
19,CC(C)(Oc1ccc(-c2ccc(CCNC(=O)c3ccccc3)cc2)cc1)C(=O)O,179 °C
